What was measured:
PC3 = experiment: IncuCyte % confluence cell growth inhibition, PC3; format: cell-based; conditions: Homo sapiens, PC-3, read-out: IC50 values (μM), PC3
Procedure: (§1) Images were then analyzed to discern the % confluence of cells in each well. IC50 values were calculated from dose response curves of the % cell growth inhibition relative to DMSO control at the same time point per each cell line.

Progesterone Receptor B = target: T1, Progesterone Receptor B (Homo sapiens, UniProt P06401); experiment: Radioligand competition binding, [3H] progesterone; conditions: competition with 0.5 nM [3H] progesterone
T1 sequence (P06401 1-933): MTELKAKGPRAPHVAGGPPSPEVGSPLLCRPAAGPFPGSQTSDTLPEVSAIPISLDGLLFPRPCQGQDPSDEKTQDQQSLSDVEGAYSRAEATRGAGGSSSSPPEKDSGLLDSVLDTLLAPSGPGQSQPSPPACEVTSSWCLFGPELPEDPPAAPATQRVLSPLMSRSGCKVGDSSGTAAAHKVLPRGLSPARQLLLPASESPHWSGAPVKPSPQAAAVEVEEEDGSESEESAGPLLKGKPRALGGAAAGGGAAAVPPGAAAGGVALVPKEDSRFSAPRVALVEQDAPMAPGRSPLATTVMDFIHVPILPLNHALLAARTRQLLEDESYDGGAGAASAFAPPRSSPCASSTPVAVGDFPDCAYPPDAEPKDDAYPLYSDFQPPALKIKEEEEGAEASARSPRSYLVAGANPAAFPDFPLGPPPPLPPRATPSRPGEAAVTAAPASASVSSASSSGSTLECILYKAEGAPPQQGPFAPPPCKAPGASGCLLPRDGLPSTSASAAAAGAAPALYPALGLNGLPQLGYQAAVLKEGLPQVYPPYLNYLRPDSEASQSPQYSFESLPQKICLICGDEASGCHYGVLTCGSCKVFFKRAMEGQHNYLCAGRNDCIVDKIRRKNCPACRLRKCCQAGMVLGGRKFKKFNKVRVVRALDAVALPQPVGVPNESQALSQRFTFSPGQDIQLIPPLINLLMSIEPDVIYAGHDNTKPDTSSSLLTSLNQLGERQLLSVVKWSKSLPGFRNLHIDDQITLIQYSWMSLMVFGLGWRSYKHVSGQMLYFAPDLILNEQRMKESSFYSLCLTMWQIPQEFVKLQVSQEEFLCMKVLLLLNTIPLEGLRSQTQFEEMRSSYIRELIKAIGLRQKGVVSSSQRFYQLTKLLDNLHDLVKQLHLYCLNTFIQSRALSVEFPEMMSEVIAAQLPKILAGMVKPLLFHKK
Procedure: (§2) Binding assays were performed via competition with radioactive ligands across a range of dose of compounds 15a and 19d. For aldosterone binding, the aldosterone receptor was incubated for 20 hours with […] aldosterone. Similarly, the androgen receptor was co-incubated with 0.5 nM of [^3H] methyltrienolone, the estrogen receptor alpha was co-incubated with 0.5 nM [^3H] estradiol, the glucocorticoid receptor with 0.5 nM [^3H] dexamethasone, and the progesterone receptor with 0.5 nM [^3H] progesterone as parent ligands.

Androgen Receptor = target: T2, Androgen Receptor (UniProt P10275); experiment: Radioligand competition binding, [3H] methyltrienolone; conditions: competition with 0.5 nM [3H] methyltrienolone
T2 sequence (P10275 1-920): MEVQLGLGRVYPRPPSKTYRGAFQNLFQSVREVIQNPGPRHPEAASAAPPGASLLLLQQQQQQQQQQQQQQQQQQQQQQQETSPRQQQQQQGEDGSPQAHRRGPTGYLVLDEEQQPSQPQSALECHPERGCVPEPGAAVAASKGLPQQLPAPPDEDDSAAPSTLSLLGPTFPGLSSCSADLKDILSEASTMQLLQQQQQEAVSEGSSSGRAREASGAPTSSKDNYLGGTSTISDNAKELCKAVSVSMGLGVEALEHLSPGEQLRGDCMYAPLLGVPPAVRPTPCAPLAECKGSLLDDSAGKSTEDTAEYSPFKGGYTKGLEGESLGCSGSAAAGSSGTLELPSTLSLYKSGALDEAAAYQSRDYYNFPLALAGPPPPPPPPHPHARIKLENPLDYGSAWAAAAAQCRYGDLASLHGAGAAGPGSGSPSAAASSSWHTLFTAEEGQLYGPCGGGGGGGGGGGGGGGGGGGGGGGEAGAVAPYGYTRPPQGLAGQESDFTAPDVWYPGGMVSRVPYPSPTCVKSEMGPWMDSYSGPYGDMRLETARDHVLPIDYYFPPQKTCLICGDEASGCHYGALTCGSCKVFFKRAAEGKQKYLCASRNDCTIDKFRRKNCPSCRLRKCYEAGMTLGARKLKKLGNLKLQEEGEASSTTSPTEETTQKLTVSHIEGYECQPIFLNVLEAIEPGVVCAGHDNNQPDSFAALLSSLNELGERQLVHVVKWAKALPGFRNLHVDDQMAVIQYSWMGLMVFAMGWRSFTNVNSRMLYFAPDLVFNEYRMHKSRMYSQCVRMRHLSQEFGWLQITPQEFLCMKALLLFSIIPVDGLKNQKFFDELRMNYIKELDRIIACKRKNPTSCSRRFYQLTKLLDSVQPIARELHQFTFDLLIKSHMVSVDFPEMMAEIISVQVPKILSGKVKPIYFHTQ
Procedure: as §2

22Rv1 = experiment: IncuCyte % confluence cell growth inhibition, 22Rv1; format: cell-based; conditions: Homo sapiens, 22Rv1, read-out: IC50 values (μM), 22Rv1
Procedure: as §1

[1] = Pharmacokinetics in non-tumor bearing BALB/C mice, IV and PO; format: in vivo; conditions: for Cmax—D: dose-normalised; for Tmax / half-life: mouse, plasma
Procedure: FIG. 14A-B are graphs of time (hours) versus plasma concentration (ng/mL) for intravenous (IV) (FIG. 14A) and oral (PO) (FIG. 14B) administration of 15a and 15n over 12 hours. Error bars represent the standard deviation in ng/mL from three independent mice per time point.
Clearance, Cmax, half life, dose/AUC, and bioavailability were calculated by statistical analysis using PHOENIX™ WINNONLIN™ v7.0 (Certara, Princeton, N.J.). The results are shown in FIGS. 14A and 14B and Table 4.

DU145 = experiment: IncuCyte % confluence cell growth inhibition, DU145; format: cell-based; conditions: Homo sapiens, DU-145, read-out: IC50 values (μM), DU145
Procedure: as §1

SMILES	IC50 (PC3) [µM]	IC50 (Progesterone Receptor B) [nM]	IC50 (Androgen Receptor) [nM]	IC50 (22Rv1) [µM]	Cmax—D ([1]; IV, 1 mg/kg) [kg·ng/mL/mg]	Cmax—D ([1]; PO, 20 mg/kg) [kg·ng/mL/mg]	Tmax ([1]; IV, 1 mg/kg) [h]	half-life ([1]; IV, 1 mg/kg) [h]	Tmax ([1]; PO, 20 mg/kg) [h]	half-life ([1]; PO, 20 mg/kg) [h]	IC50 (DU145) [µM]
CC1(C)C(=O)N(c2ccc(C#N)c(C(F)(F)F)c2)C(=S)N1Cc1ccc(-c2c[nH]nn2)cc1 [Compound 15a, 4-(3-(4-(1H-1,2,3-triazol-4-yl)benzyl)-4,4-dimethyl-5-oxo-2-thioxoimidazolidin-1-yl)-2-(trifluoromethyl)benzonitrile]	59.8	103	12.5	18.3	453	412	2	18	2	20.6	37.3
CC1(C)C(=O)N(c2ccc(C#N)c(C(F)(F)F)c2)C(=S)N1Cc1ccc(-c2c[nH]nn2)cc1F [Compound 19d, 4-(3-(2-Fluoro-4-(1H-1,2,3-triazol-4-yl)benzyl)-4,4-dimethyl-5-oxo-2-thioxoimidazolidin-1-yl)-2-(trifluoromethyl)benzonitrile]	44.8	76.3	9.3	26.9							53.6

Source: patent US20230135524A1, “ARYL HYDANTOIN HETEROCYCLES AND METHODS OF USE” (The United States of America,as represented by the …, priority 2020, published 2023)
